Reference: patent US11279726B2, “Norbornene-based amphipathic compound and utilization thereof” (Industry-University Cooperation Foundation Hanyang …, priority 2017, dated 2022)

Legend:
[1] = target: T1, uric acid-xanthine/H+ symporter (UapA) (Emericella nidulans, UniProt Q07307, G411V); assay: UapA extraction and thermal stability by fluorescence size exclusion chromatography (FSEC); set-up: species or system Aspergillus nidulans; conditions: 1.0 wt % amphiphile, 10 minutes at 40° C.; compared with DDM
T1 construct: made in house; host or cells: Saccharomyces cerevisiae FGY217
Procedure: An experiment for measuring the structural stability of uric acid-xanthine/H+ symporter (UapA) isolated from Aspergillus nidulans using NBMs was performed. The structural stability of UapA was evaluated using […].
Specifically, UapAG411VΔ1-11 (hereinafter, referred to as “UapA”) was expressed as GFP fusion in Saccharomyces cerevisiae FGY217 strain and isolated in a sample buffer (20 mM Tris (pH 7.5), 150 mM NaCl, 0.03% DDM, 0.6 mM xanthine) according to the method described in the literature written by J. Leung et al. (Mol. Membr. Biol. 2013, 30, 32-42). Membranes containing UapA were resuspended in PBS, 10 mM imidazole pH 8.0, 150 mM NaCl, 10% glycerol, and the protein concentration was measured. The membranes were adjusted to a concentration of 1 mg·ml^−1 and 1 ml aliquots were individually incubated with DDM or NBMs at a final amphiphilic material concentration of 1.0 wt % for 10 minutes at 40° C. 100 μl aliquots were removed from each tube, and a fluorescence reading was taken for each sample before and after ultracentrifugation at 150,000 g for 10 minutes to remove insoluble material. The remaining soluble fraction for each condition was submitted to fluorescent size exclusion chromatography (FSEC) using a Superose 6 column (GE Healthcare) equilibrated with DDM.

[2] = Critical micelle concentration by fluorescent staining with diphenylhexatriene (DPH); format: physicochemical; conditions: aqueous solution
Procedure: A method for measuring CMC is not particularly limited, and a method widely known in the art may be used, for example, by fluorescence staining with diphenylhexatriene (DPH).
(§1) To identify the characteristics of NBMs synthesized in Preparation Example 1 to 6 according to the synthetic method of Example 1, molecular weights (MWs) of NBMs, critical micelle concentrations (CMCs) and hydrodynamic radii (Rh) of the micelles were measured.
(§2) Specifically, the critical micelle concentrations (CMCs) were measured by fluorescent staining with diphenylhexatriene (DPH), and the hydrodynamic radii (Rh) of the micelle formed with individual agents (1.0 wt %) were measured by dynamic light scattering (DLS).

[3] = Hydrodynamic radius / size distribution of micelles by dynamic light scattering (DLS); format: physicochemical; conditions: 1.0 wt % agent
Procedure: A method for measuring the radius of a micelle is not particularly limited, and a method well known in the art may be used, and for example, the radius thereof may be measured using a dynamic light scattering (DLS) experiment.
as §1, §2

[4] = target: T2, human β2 adrenergic receptor (β2AR) (Homo sapiens, UniProt P07550); assay: β2AR stability: [3H]-DHA ligand binding activity of solubilized receptor
T2 construct: made in house
Procedure: An experiment of measuring the stability of human β2 adrenergic receptor (β2AR) and G-protein-coupled receptor (GPCR) for NBMs was carried out. That is, the receptor was extracted from the cell membranes by DDM and purified in the same amphiphilic compound. The DDM-purified receptor was diluted in individual DDM- or NBM-containing buffers to adjust the final compound concentration to be CMC+0.2 wt %. The receptor stability was assessed by measuring ligand binding activity using [3H]-DHA.
To measure long-term stability of human β2AR with NBMs (D-NBM-C11 and X-NBM-C11) showing an excellent ligand binding activity of the receptor in the previous experiment, a radio-labeled ligand binding experiment was performed by the following method. β2AR was purified using 0.1% DDM (D. M. Rosenbaum et al., Science, 2007, 318, 1266-1273), and finally concentrated to approximately 10 mg/ml (approximately 200 μM). A main binding mixture containing 10 nM [^3H]-DHA supplemented with 0.5 mg/ml BSA was prepared in 0.2% amphiphilic compound (DDM or NBMs (D-NBM-C11 and X-NBM-C11)) using β2AR purified with DDM. The receptor purified with DDM or NBMs was incubated with 10 nM [^3H]-DHA at room temperature for 30 minutes. The mixture was loaded onto a G-50 column, the fractions were collected in a 1 ml binding buffer (20 mM HEPES pH 7.5, 100 mM NaCl, containing 0.5 mg/ml BSA and 20× CMC individual amphiphilic compounds). In addition, each fraction was supplemented with a 15 ml scintillation fluid, and receptor-bound [^3H]-DHA was measured using a scintillation counter (Beckman) at regular intervals for 3 days. The binding capacity of [^3H]-DHA was shown as a bar chart (FIG. 11a).
In addition, β2AR was extracted from the membrane using 1.0 wt % of DDM or X-NBM-C11 and purified at 0.2 wt % for the same individual amphiphilic compounds. Structural stability of the receptor was assessed by ligand binding activity, which was measured with sample aliquots at regular intervals during 7-day incubation at room temperature. Each experiment was carried out in triplicate (FIG. 12b).

[5] = target: β2AR-Gs complex (Homo sapiens, UniProt P07550); assay: Negative stain EM analysis of β2AR-Gs complex
Procedure: A β2AR-Gs protein complex was prepared for electron microscopy using the conventional negative staining protocol, and imaged at room temperature with a Tecnai T12 electron microscope operated at 120 kV using low-dose procedures. Images were recorded at a magnification of 71,138× and a defocus value of approximately 1.4μ using a Gatan US4000 CCD camera. All images were binned (2×2 pixels) to obtain a pixel size of 4.16 A at the specimen level. Particles were manually excised using e2boxer (part of the EMAN2 software suite). 2D reference-free alignment and classification of particle projections were performed using ISAC. 14,556 projections of β2AR-Gs were subjected to ISAC, producing 199 classes consistent over two-way matching and accounting for 10,100 particle projections.

[6] = target: T3, Salmonella typhimurium melibiose permease (MelBSt) (Salmonella typhimurium, UniProt P30878); assay: MelBSt extraction and thermostability (SDS-PAGE / western blotting); conditions: 1.5 wt %
T3 construct: made in house; host or cells: E. coli DW2 (ΔmelB, ΔlacZY)
Procedure: An experiment of measuring structural stability of MelBSt (Salmonella typhimurium melibiose permease) protein with NBMs was carried out. The MelBSt protein was extracted from the membrane using NBMs or DDM, and the amounts and structure of the extracted proteins were analyzed by SDS-PAGE and western blotting. The concentration of the used amphiphilic compound was 1.5 wt %. The proteins were extracted at four temperatures (0, 45, 55, and 65° C.) and incubated at the same temperature for 90 minutes, and the amounts of the remaining proteins solubilized in an aqueous solution were measured, so as to simultaneously evaluate both performances of the compound such as protein extraction efficiency and stabilization activity. The amounts of the proteins extracted and stabilized by respective amphiphilic molecules were represented as relative values (%) to the amounts of total proteins contained in the membrane sample not treated with an amphiphilic molecule.
Specifically, Salmonella typhimurium melibiose permease (MelBSt) with a C-terminal 10-His tag was expressed in E. coli DW2 cells (^ΔmelB and ^ΔlacZY) using plasmid pK95^ΔAHB/WT MelBSt/CH10. Cell growth and membrane preparation were carried out according to the method described in the literature written by A. S. Ethayathulla et al. (Nat. Commun. 2014, 5, 3009). Protein assays were carried out with a Micro BCA kit (Thermo Scientific, Rockford, Ill.). The measurement of MelBSt stability was carried out on NBMs or DDM according to the protocol described by P. S. Chae et al. (Nat. Methods 2010, 7, 1003-1008). Membrane samples containing MelBSt (final protein concentration was 10 mg/mL) were incubated with a solubilization buffer (20 mM sodium phosphate, pH 7.5, 200 mM NaCl, 10% glycerol, 20 mM melibiose) and 1.5% (w/v) of DDM or NBMs (X-NBM-C10, D-NBM-C10, X-NBM-C11 or D-NBM-C11) at four different temperatures (0, 45, 55, 65° C.) for 90 minutes. To remove insoluble materials, following ultracentrifugation at 355,590 g using a Beckman Optimal™ MAX ultracentrifuge with TLA-100 rotor for 45 minutes at 4° C. was performed, and 20 μg of each protein sample was separated by SDS-16% PAGE, and then immunoblotted with a Penta-His-HRP antibody (Qiagen, Germantown, Md.). MelBSt was detected using SuperSignal West Pico chemiluminescent substrate by an ImageQuant LAS 4000 Biomolecular Imager (GE Health Care Life Science).

Structure (SMILES)	Retention of monodispersed UapA-GFP peak after heating (FSEC) [1]	CMC [2] [mM]	CMC (wt %) [2] [wt %]	Rh (nm), hydrodynamic radius of micelles [3] [nm]	Long-term ligand binding activity of β2AR ([3H]-DHA) ([4]; 0.2% amphiphile, room temperature, 3 days (7 days for receptor extracted with the amphiphile))	Initial ligand binding activity of β2AR ([3H]-DHA) ([4]; DDM-purified receptor diluted to CMC+0.2 wt % amphiphile)	Particle dispersity of β2AR-Gs complex in negative stain EM [5]	MelBSt protein extraction (solubilization) efficiency ([6]; 0° C. and 45° C., 90 minutes)	MelBSt protein extraction efficiency ([6]; 0° C., 90 minutes)	Amount of solubilized MelBSt protein ([6]; 65° C., 90 minutes)	MelBSt membrane protein stabilization activity (overall) ([6]; elevated temperature)
CCCCCCCCCCOCC1C2CC([C@H]1COCCCCCCCCCC)[C@H](O[C@@H]1OC(CO)[C@@H](O[C@H]3OC(CO)[C@@H](O)C(O)C3O)C(O)C1O)C2O[C@@H]1OC(CO)[C@@H](O[C@H]2OC(CO)[C@@H](O)C(O)C2O)C(O)C1O (stereo partly shown) [X-NBM-C10]	more or less comparable to DDM	~0.007	~0.0008	4.0 ± 0.02							
CCCCCCCCCCCCO[C@@H]1O[C@H](CO)[C@@H](O[C@H]2O[C@H](CO)[C@@H](O)[C@H](O)[C@H]2O)[C@H](O)[C@H]1O [DDM, n-dodecyl-β-D-maltopyranoside, reference compound]	single monodispersed peak with relatively high intensity	~0.17	~0.0087	3.4 ± 0.03	rapidly decreased over time	excellent initial ligand binding activity	aggregated particles	high MelBSt protein extraction efficiency	higher protein extraction efficiency than NBMs	no MelBSt protein solubilized in an aqueous solution was detectable	
CCCCCCCCCOCC1C2CC([C@H]1COCCCCCCCCC)[C@H](O[C@@H]1OC(CO)[C@@H](O[C@H]3OC(CO)[C@@H](O)C(O)C3O)C(O)C1O)C2O[C@@H]1OC(CO)[C@@H](O[C@H]2OC(CO)[C@@H](O)C(O)C2O)C(O)C1O (stereo partly shown) [X-NBM-C9]	more or less comparable to DDM	~0.010	~0.0011	3.7 ± 0.03							
CCCCCCCCCCOCC1C2CC([C@@H]1COCCCCCCCCCC)[C@H](O[C@@H]1OC(CO)[C@@H](O[C@H]3OC(CO)[C@@H](O)C(O)C3O)C(O)C1O)C2O[C@@H]1OC(CO)[C@@H](O[C@H]2OC(CO)[C@@H](O)C(O)C2O)C(O)C1O (stereo partly drawn) [D-NBM-C10]	slightly lower effect than DDM	~0.008	~0.0009	3.5 ± 0.03							excellent membrane protein stabilization activity
CCCCCCCCCCC(CCCCCCCCCC)(CO[C@@H]1O[C@H](CO)[C@@H](O[C@H]2O[C@H](CO)[C@@H](O)[C@H](O)[C@H]2O)[C@H](O)[C@H]1O)CO[C@@H]1O[C@H](CO)[C@@H](O[C@H]2O[C@H](CO)[C@@H](O)[C@H](O)[C@H]2O)[C@H](O)[C@H]1O [MNG-3, reference compound]	ineffective in preventing protein denaturation/aggregation										
CCCCCCCCCOCC1C2CC([C@@H]1COCCCCCCCCC)[C@H](O[C@@H]1OC(CO)[C@@H](O[C@H]3OC(CO)[C@@H](O)C(O)C3O)C(O)C1O)C2O[C@@H]1OC(CO)[C@@H](O[C@H]2OC(CO)[C@@H](O)C(O)C2O)C(O)C1O (stereo partly drawn) [D-NBM-C9]	low recovery of monodispersed protein peak	~0.012	~0.0013	3.3 ± 0.04							
